Eleven compounds from patent publication US10351546B2, “Pyridin-3-yl acetic acid derivatives as inhibitors of human immunodeficiency virus replication” (priority 2015, dated 2019) can be followed below.

One test relates to NL-RLuc virus. Kind of test: Inhibition of HIV replication (NL-RLuc luciferase reporter virus in MT-2 cells). Type of test: cell-based. Particulars: Human immunodeficiency virus 1, MT2, 120 h, read-out: Activity. The gist of the method: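 The read-out is Renilla luciferase expressed by replication-competent NL-RLuc (nef partly replaced), measured 5 days after infection of MT-2 cells grown with compound dilutions in 10% FBS RPMI. Median effect equation gives EC50 from ≥2 runs; A ≤100 nM, B 100 nM–1 uM, C >1 uM.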
For the compound `Cc1cc(F)ccc1CN1CCc2cc(-c3c(CN4CCC(O)CC4)nc(C)c([C@H](OC(C)(C)C)C(=O)O)c3N3CCC(C)(C)CC3)ccc2C1` [Example 135, (S)-2-(tert-Butoxy)-2-(4-(4,4-dimethylpiperidin-1-yl)-5-(2-(4-fluoro-2-methylbenzyl)-1,2,3,4-tetrahydroisoquinolin-6-yl)-6-((4-hydroxypiperidin-1-yl)methyl)-2-methylpyridin-3-yl)acetic acid], the EC50 was under 0.1 µM.

As for `Cc1cc(F)ccc1CN1CCc2cc(-c3c(COCC4CCOCC4)nc(C)c([C@H](OC(C)(C)C)C(=O)O)c3N3CCC(C)(C)CC3)ccc2C1` [Example 159, (S)-2-(tert-Butoxy)-2-(4-(4,4-dimethylpiperidin-1-yl)-5-(2-(4-fluoro-2-methylbenzyl)-1,2,3,4-tetrahydroisoquinolin-6-yl)-2-methyl-6-(((tetrahydro-2H-pyran-4-yl)methoxy)methyl)pyridin-3-yl)acetic acid], the EC50 is under 0.1 µM.

Regarding `Cc1nc(-c2nc3ccc(Cl)cc3[nH]2)c(-c2ccc(OCCc3ccc(F)cc3)cc2)c(N2CCC(C)(C)CC2)c1[C@H](OC(C)(C)C)C(=O)O` [Example 44, (S)-2-(tert-Butoxy)-2-(6-(6-chloro-1H-benzo[d]imidazol-2-yl)-4-(4,4-dimethylpiperidin-1-yl)-5-(4-(4-fluorophenethoxy)phenyl)-2-methylpyridin-3-yl)acetic acid], the EC50 is under 0.1 µM.

With `CCOCCOCc1nc(C)c([C@H](OC(C)(C)C)C(=O)O)c(N2CCC(C)(C)CC2)c1-c1ccccc1` [Example 34, (S)-2-(tert-Butoxy)-2-(4-(4,4-dimethylpiperidin-1-yl)-6-((2-ethoxyethoxy)methyl)-2-methyl-5-phenylpyridin-3-yl)acetic acid], the EC50 was under 0.1 µM.

Consider `Cc1nc(COCN2CCCC2=O)c(-c2ccc(OCCc3ccc(F)cc3)cc2)c(N2CCC(C)(C)CC2)c1[C@H](OC(C)(C)C)C(=O)O` [Example 26, (S)-2-(tert-Butoxy)-2-(4-(4,4-dimethylpiperidin-1-yl)-5-(4-(4-fluorophenethoxy)phenyl)-2-methyl-6-(((2-oxopyrrolidin-1-yl)methoxy)methyl)pyridin-3-yl)acetic acid], for which the EC50 was under 0.1 µM.

Turning to `COCc1nc(C)c([C@H](OC(C)(C)C)C(=O)O)c(N2CCC(C)(C)CC2)c1-c1ccc2c(c1)CCN(Cc1ccc(F)cc1C)C2` [Example 157, (S)-2-(tert-Butoxy)-2-(4-(4,4-dimethylpiperidin-1-yl)-5-(2-(4-fluoro-2-methylbenzyl)-1,2,3,4-tetrahydroisoquinolin-6-yl)-6-(methoxymethyl)-2-methylpyridin-3-yl)acetic acid], the EC50 was under 0.1 µM.

Turning to `Cc1nc(C(=O)N(C)CC2CCOCC2)c(-c2ccc(OCCc3ccc(F)cc3)cc2)c(N2CCC(C)(C)CC2)c1[C@H](OC(C)(C)C)C(=O)O` [Example 41, (S)-2-(tert-Butoxy)-2-(4-(4,4-dimethylpiperidin-1-yl)-5-(4-(4-fluorophenethoxy)phenyl)-2-methyl-6-(methyl((tetrahydro-2H-pyran-4-yl)methyl)carbamoyl)pyridin-3-yl)acetic acid], the EC50 is under 0.1 µM.

As to `Cc1cccc(Cl)c1CN1CCc2cc(-c3c(CN4CCC(C)(C)CC4)nc(C)c([C@H](OC(C)(C)C)C(=O)O)c3N3CCC(C)(C)CC3)ccc2C1` [Example 179, (S)-2-(tert-Butoxy)-2-(5-(2-(2-chloro-6-methylbenzyl)-1,2,3,4-tetrahydroisoquinolin-6-yl)-4-(4,4-dimethylpiperidin-1-yl)-6-((4,4-dimethylpiperidin-1-yl)methyl)-2-methylpyridin-3-yl)acetic acid], the EC50 was under 0.1 µM.

On to `Cc1nc(COCC2CC(F)(F)C2)c(-c2ccc(OCCc3ccc(F)cc3)cc2)c(N2CCC(C)(C)CC2)c1[C@H](OC(C)(C)C)C(=O)O` [Example 30, (S)-2-(tert-Butoxy)-2-(6-(((3,3-difluorocyclobutyl)methoxy)methyl)-4-(4,4-dimethylpiperidin-1-yl)-5-(4-(4-fluorophenethoxy)phenyl)-2-methylpyridin-3-yl)acetic acid], for which the EC50 is under 0.1 µM.

In the case of `C=Cc1nc(C)c([C@H](OC(C)(C)C)C(=O)O)c(N2CCC(C)(C)CC2)c1-c1ccc(OCCc2ccc(F)cc2)cc1` [Example 61, (S)-2-(tert-Butoxy)-2-(4-(4,4-dimethylpiperidin-1-yl)-5-(4-(4-fluorophenethoxy)phenyl)-2-methyl-6-vinylpyridin-3-yl)acetic acid], the EC50 was under 0.1 µM.

For `Cc1cccc(Cl)c1CN1CCc2cc(-c3c(CN4CCC5(CC4)CC5)nc(C)c([C@H](OC(C)(C)C)C(=O)O)c3N3CCC(C)(C)CC3)ccc2C1` [Example 178, (S)-2-(6-((6-Azaspiro[2.5]octan-6-yl)methyl)-5-(2-(2-chloro-6-methylbenzyl)-1,2,3,4-tetrahydroisoquinolin-6-yl)-4-(4,4-dimethylpiperidin-1-yl)-2-methylpyridin-3-yl)-2-(tert-butoxy)acetic acid], the EC50 is under 0.1 µM.

Still in this test, the particulars now being: Human immunodeficiency virus 1, MT2, 120 h, read-out: EC50 μM.
On to `Cc1cccc(Cl)c1CN1CCc2cc(-c3c(CN4CCC(C)(C)CC4)nc(C)c([C@H](OC(C)(C)C)C(=O)O)c3N3CCC(C)(C)CC3)ccc2C1` [Example 179, (S)-2-(tert-Butoxy)-2-(5-(2-(2-chloro-6-methylbenzyl)-1,2,3,4-tetrahydroisoquinolin-6-yl)-4-(4,4-dimethylpiperidin-1-yl)-6-((4,4-dimethylpiperidin-1-yl)methyl)-2-methylpyridin-3-yl)acetic acid], for which the EC50 came to 0.005 µM.
